Data: paper PMC11590367, “Characterization of novel small molecule inhibitors of estrogen receptor-activation function 2 (ER-AF2)” (Breast Cancer Research : BCR, 2024)

T1: ER-LBD (residues 298–554), recombinant, N-terminal His-tag (UniProt P03372 298-554, red fluorescent dye (Protein Labeling Kit RED-NHS 2nd Generation))
T1 construct: Kept with 20 µM E2 in lysis and assay buffers; also called recombinant ER-LBD; source: E. coli (BL21-DE3) with pRARE, purified (Ni-NTA, size exclusion s75), 50 µM E2 added during expression
T1 sequence (looked up): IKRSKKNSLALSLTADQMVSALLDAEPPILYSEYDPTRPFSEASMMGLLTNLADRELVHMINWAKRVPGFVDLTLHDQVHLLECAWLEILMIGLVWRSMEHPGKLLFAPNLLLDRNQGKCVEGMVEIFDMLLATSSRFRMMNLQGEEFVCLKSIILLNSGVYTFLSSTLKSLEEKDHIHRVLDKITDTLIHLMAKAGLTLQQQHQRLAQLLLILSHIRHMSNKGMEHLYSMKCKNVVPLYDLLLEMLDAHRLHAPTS


What was measured:
[1] = test system: ER target genes (cyclinD1, CDC2, E2F, PR, pS2) in TamR3 cells; assay: Real-time PCR of ER target genes, TamR3; format: cell-based; conditions: 1 µM Tamoxifen
Description: Total RNA was extracted using TRIzol, 72 h post-treatment. cDNA synthesis was conducted using the Maxima First Strand cDNA Synthesis Kit for RT-qPCR (Thermo K1641) according to the manufacturer’s protocol. RT-PCR was conducted on the QuantStudio 7 Pro instrument and expression fold change was calculated using 2−ΔΔCt method normalized to 18s.

[2] = test system: ER transcriptional activity in T47D-KBluc cells; assay: Luciferase transcriptional assay; format: cell-based; conditions: ER transcription, luciferase reporter, 1 nM E2, 24 h treatment, ± SD of 3 biological replicates
Description: T47D-KBluc cells or PC3m-luc cells were starved for 72 h and then seeded into 96-well plates at 20,000 or 5,000 cells/well, respectively. […] One day post-treatment, the media was removed, and cells were lysed with 65 µl of 1x passive lysis buffer (Promega #E1910). Following two freeze-thaw cycles, 20 µl of lysate were transferred to a white, 96-well flat bottom plate (Corning Life Sciences Cat#3912). 50 µl of luciferase reagent (Promega. Luciferase Assay System E1500) was added to each well, and luminescence was measured using the TECAN M200 Pro plate reader. E2 (1 nM), 4-hydroxytamoxifen (OHT) (4 nM), and DMSO (0.2%) were used as controls for this assay. […] E2 alone represented 100% transcriptional activation, while the 0.2% DMSO control represented 0% transcriptional activity. OHT was used as a positive control for an active compound.

[3] = Precipitation in MST assay buffer; format: physicochemical; conditions: 2% DMSO, 0.03 to 1000 µM
Description: MST was used to validate the direct binding and measure the binding affinities between the lead compounds and the recombinant ER-LBD. ER-LBD was labeled with red fluorescent dye using a Protein Labeling Kit RED-NHS 2nd Generation (Nanotemper MO-L011) according to the manufacturer’s protocol. The compounds were serially diluted 1:2 in 100% DMSO from 50 to 0.0015 mM, then added to 10 nM of labeled ER protein in the assay buffer (25 mM Tris, pH 8.4, 150 mM NaCl, 20 µM E2, 0.1 mM PMSF, 0.05% Tween20) at final concentrations of 0.03 to 1000 µM. Recombinant proteins in cell free assays are not affected by DMSO concentrations up to 10%. A final concentration of 2% DMSO was chosen for MST as the compounds required this concentration to be soluble in the assay buffer. […] The corresponding data points were removed from the analysis. […] Each protein/compound mixture was then loaded into Monolith Premium Capillaries (Nanotemper MO-K025). All assays were conducted with medium MST power and 20% excitation power. Data analysis and Kd estimation were performed with the MO Affinity Analysis software from Nanotemper.

[4] = test system: T47D cells; assay: PrestoBlue viability assay, T47D; format: cell-based; conditions: 1 nM E2, 72 h treatment, ± SD of 3 biological replicates
Description: (§1) T47D, MCF7, TamR3, and MDA-MB-231 cells were starved for 72 h and then seeded into black clear-bottom 96-well plates (Corning Life Sciences Cat#3904) at 20,000 cells/well (T47D, MCF7, TamR3) or 5,000 cells/well (MDA-MB-231). […] 20 µl of PrestoBlue Cell Viability Reagent (Thermo Fisher A13262) was added to each well and incubated at 37 °C for 1 h. Fluorescence intensity was measured using the TECAN F500 plate reader with emission and excitation wavelengths of […], respectively.

[5] = test system: TamR3 cells; assay: PrestoBlue viability assay, TamR3; format: cell-based; conditions: 1 nM E2, 72 h treatment, ± SD of 3 biological replicates
Description: as §1

[6] = test system: MCF7 cells; assay: PrestoBlue viability assay, MCF7; format: cell-based; conditions: Homo sapiens, 1 nM E2, 72 h treatment, ± SD of 3 biological replicates
Description: as §1

[7] = test system: MDA-MB-231 cells; assay: PrestoBlue viability assay, MDA-MB-231; format: cell-based; conditions: dose response 50 to 0.01 µM, 1 nM E2
Description: as §1

[8] = biological target: T2, full length ERɑ protein, estrogen binding site (EBS) (Homo sapiens, UniProt P03372); assay: E2-displacement assay (PolarScreen fluorescence polarization); conditions: fluorescence polarization, 1, 10 and 50 µM
T2 construct: full length ERɑ protein was incubated with Fluormone ES2 Green; purchased ThermoFisher A15882
Description: The E2 displacement assay was performed using the PolarScreen Estrogen Receptor Alpha Competitor Assay, Green (ThermoFisher A15882) according to the manufacturer’s protocol. In brief, full length ERɑ protein was incubated with Fluormone ES2 Green (Fluormone Tracer) in the ES2 screening buffer in a black bottom 384-well plate (Corning 3573) in the presence of either 1, 10, or 50 µM of test compounds. The final concentrations in the assay were 2% DMSO (consistent with the MST assay), 4.5 nM fluormone, and 40 nM ERɑ protein. 20 µl of the mixture were added to each well, with triplicates performed for each condition. The plate was incubated in the dark at room temperature for 4 h before fluorescence polarization was measured using a Synergy Neo2 plate reader (BioTek).

[9] = biological target: T3, ER-LBD AF2 site / PGC1a coactivator peptide (Homo sapiens, UniProt P03372); assay: TR-FRET coactivator peptide displacement (LanthaScreen ER alpha Coactivator Assay); format: binding; conditions: 4 nM E2, 4 h
T3 construct: The assay utilizes GST-tagged ER-LBD (final concentration, 7.3 nM); purchased Thermo Fisher A15885
Description: We performed a TR-FRET assay to assess whether compounds displace the AF2 peptide from the ER-AF2 pocket using the LanthaScreen TR-FRET ER alpha Coactivator Assay Kit (Thermo Fisher, A15885). The assay utilizes GST-tagged ER-LBD (final concentration, 7.3 nM), terbium-labeled GST-antibody (final concentration, 5 nM), and a fluorescein-coactivator peptide, PGC1a (final concentration, 250 nM) in the presence of 4 nM E2. The GST-antibody, ER protein and fluorescent peptide mixture was incubated with four concentrations of compound (500 µM, 167 µM, 56 µM, 18.5 µM) for 4 h. The sample was excited at 340 nm and read at 520 nm on a Syngergy Neo2 plate reader (BioTek).

[10] = biological target: T4, recombinant ER-LBD (residues 298–554) (Homo sapiens, UniProt P03372); assay: Microscale thermophoresis (MST) direct binding; conditions: averaged from three independent assays, 20 µM E2 in buffer, read-out: Kd (binding affinity to ER-LBD)
T4 construct: The ER-LBD (residues 298–554) was cloned into pET28a bacterial expression plasmid; His-tag (N); made in house; host or cells: E. coli BL21-DE3 (with pRARE)
Description: The ER-LBD (residues 298–554) was cloned into pET28a bacterial expression plasmid with an N-terminal His-tag. pET28a-His-ER and pRARE were transformed into E. coli (BL21-DE3). Bacteria were grown at 37 [drawing 1] C overnight, and then diluted 1:20 the following day in LB media and grown at 37 [drawing 2] C until the OD600 reached 0.5. Protein expression was induced with 1 mM IPTG, and 50 µM E2 was added to the media. Cells were then grown for 5 h at 25 °C. Bacterial pellets were collected by centrifugation at 13,000 rpm for 7 min. Pellets were resuspended in lysis buffer (25 mM Tris, pH 8.4, 150 mM NaCl, 20 µM E2, 1 mM DTT, 0.1 mM PMSF, cOmplete protease inhibitor (Roche)) then sonicated and centrifuged to obtain the soluble extracts. ER-LBD was purified using affinity chromatography with Ni-NTA agarose resin. The presence of the ER-LBD in eluted fractions was confirmed by SDS-PAGE and validated by mass spectrometry. The eluted protein was further purified by size exclusion chromatography (s75), and fractions containing the ER-LBD protein were pooled and concentrated using Amicon Ultra centrifugal filters (3 K MWCO).
MST was used to validate the direct binding and measure the binding affinities between the lead compounds and the recombinant ER-LBD. […]

[11] = parameters: method as in earlier work; conditions: cited from earlier work
[12] = biological target: ER D538G/F404L mutant (Homo sapiens, UniProt P03372, D538G/F404L); assay: Transcriptional activity of fulvestrant resistant mutant ER; format: cell-based; conditions: compared to DMSO
[13] = parameters: method as in earlier work; conditions: cited from earlier work; remark: listed apart in the source
[14] = biological target: T1, ER-LBD (residues 298–554), recombinant, …; assay: MST; 10 nM RED-NHS labelled ER-LBD, ligand titrated; 25 mM Tris pH 8.4, 150 mM NaCl, 20 µM E2, 0.1 mM PMSF, 0.05% Tween20; medium MST power, 20% excitation power; Kd averaged from three independent assays; conditions: both partners purified

T2 sequence (P03372 whole entry): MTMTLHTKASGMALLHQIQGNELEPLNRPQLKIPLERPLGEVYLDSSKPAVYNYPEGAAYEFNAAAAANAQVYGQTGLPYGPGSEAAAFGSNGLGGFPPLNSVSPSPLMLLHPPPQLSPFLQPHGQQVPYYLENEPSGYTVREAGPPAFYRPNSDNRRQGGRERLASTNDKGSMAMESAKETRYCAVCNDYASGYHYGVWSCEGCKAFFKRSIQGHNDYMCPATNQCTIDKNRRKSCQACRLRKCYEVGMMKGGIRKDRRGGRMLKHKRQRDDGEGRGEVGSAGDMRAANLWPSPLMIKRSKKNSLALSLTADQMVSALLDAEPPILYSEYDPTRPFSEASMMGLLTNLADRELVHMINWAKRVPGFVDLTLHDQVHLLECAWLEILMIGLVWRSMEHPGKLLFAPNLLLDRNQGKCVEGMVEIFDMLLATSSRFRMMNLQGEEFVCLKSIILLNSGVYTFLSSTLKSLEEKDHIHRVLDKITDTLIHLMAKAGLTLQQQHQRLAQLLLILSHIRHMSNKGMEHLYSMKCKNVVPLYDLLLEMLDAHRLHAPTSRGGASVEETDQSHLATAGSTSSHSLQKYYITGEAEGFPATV
ER D538G/F404L mutant, sequence (P03372 whole entry F404L/D538G): as the sequence (P03372 whole entry) above, with F404L, D538G counted along it

| Molecule | IC50 ([2]; 24 h) | Precipitation after addition of ER protein [3] | IC50 ([4]; Homo sapiens, T47D, 72 h) | IC50 [5] | IC50 [6] | also measured |
| --- | --- | --- | --- | --- | --- | --- |
| CC/C(=C(\c1ccccc1)c1ccc(OCCN(C)C)cc1)c1ccccc1 [Tamoxifen, tamoxifen, reference compound] | – | – | – | – | – | ER target gene expression in TamR3, tamoxifen alone [1]: increased target gene expression |
| CCNC(=O)c1cccc(CNCc2cnc3c(C)cccn23)c1 [VPC-260709] | 13.8 ± 2.92 µM | exhibited precipitation at 1000 and 500 µM | 6.37 ± 3.3 µM | – | – | – |
| Cc1cccn2c(CNCc3ccc(F)cc3F)cnc12 [VPC-260711] | 6.4 µM | exhibited precipitation at 1000 and 500 µM | 5.4 ± 1.23 µM | 16.8 ± 2.07 µM | 18 ± 1.3 µM | Effect on viability of ER-negative MDA-MB-231 cells [7]: minimal impact; IC50 [2]: 6.36 ± 0.59 µM |
| Cc1cccn2c(CNCc3cccc(Br)c3)cnc12 [VPC-260726] | 17.9 ± 3.51 µM | – | 11.2 ± 5.67 µM | 13.9 ± 1.84 µM | 16.6 ± 1.47 µM | – |
| Cc1cccc(Oc2ccc(NC(=O)N[C@H]3C[C@H](CO)C3)cn2)c1C [VPC-260927] | 10.8 ± 3.85 µM | – | 13.8 ± 4.23 µM | 24.4 ± 2.48 µM | 19.5 ± 2.16 µM | Displacement of fluormone (fluorescent E2) from EBS [8]: displaces the fluormone at 1, 10 and 50 µM; Concentration at which a reduction of the FRET signal (PGC1⍺ peptide displacement) was observed [9]: 500 µM; Kd [10]: 13.2 ± 10.5 µM |
| O=C(NCc1ccc2occc2c1)Nc1ccc(OCC2CCCO2)cc1 (stereo not drawn) [VPC-260936] | 27.2 ± 6.44 µM | exhibited precipitation at 1000 and 500 µM | 10.6 ± 4.27 µM | 21.8 ± 6.51 µM | – | – |
| CC1CC(NC(=O)Nc2ccc(Oc3cccc(F)c3F)nc2)C(=O)N1c1cnn(C)c1 (stereo not drawn) [VPC-260950] | 12.4 ± 4.57 µM | – | 16 ± 6.53 µM | 21.4 ± 3.66 µM | – | – |
| Cc1cccc(Oc2ccc(NC(=O)N3CCC(c4nnc[nH]4)C3)cn2)c1C (stereo not drawn) [VPC-260955] | 17.4 ± 1.12 µM | exhibited precipitation at 1000 and 500 µM | 18.6 ± 1.13 µM | 28.7 ± 1.3 µM | – | – |
| O=C(Nc1cccc(CNCc2cnc3ccccn23)c1)C1CCCO1 (stereo not drawn) [VPC-260961] | 7.26 ± 0.73 µM | – | – | 18.7 ± 1.15 µM | 18.7 ± 1.18 µM | – |
| Cc1cccn2c(CNCc3cccc(NC(=O)[C@@H]4CCCO4)c3)cnc12 [VPC-260962] | 10.8 µM | – | 8.9 µM | 27.8 ± 7.99 µM | 16.4 ± 3.59 µM | Effect on viability of ER-negative MDA-MB-231 cells [7]: minimal impact; IC50 [2]: 10.8 ± 2.92 µM; IC50 [4]: 8.92 ± 2.81 µM |
| Cc1cccn2c(CNCc3cccc(NC(=O)[C@H]4CCCO4)c3)cnc12 [VPC-260963] | 11.9 ± 3.62 µM | – | 19 ± 5.66 µM | 16.2 ± 3.38 µM | 21.1 ± 4.67 µM | – |
| C[C@]12CC[C@@H]3c4ccc(O)cc4C[C@@H](CCCCCCCCC[S+]([O-])CCCC(F)(F)C(F)(F)F)[C@H]3[C@@H]1CC[C@@H]2O (stereo partly drawn) [fulvestrant] | – | – | – | – | – | Oral bioavailability [11]: not orally bioavailable; Transcriptional activity of mutant ER D538G/F404L [12]: increased the transcriptional activity; Solubility [13]: poor solubility |
| EAEEPSLLKKLLLAPANTQ [coactivator peptide PGC1α (control peptide of the MST assay)] | – | – | – | – | – | Kd [14]: 16.6 ± 2.4 µM |
